Publication PMC7580722, “Design of new disubstituted imidazo[1,2-b]pyridazine derivatives as selective Haspin inhibitors. Synthesis, binding mode and anticancer biological evaluation” (Journal of Enzyme Inhibition and Medicinal Chemistry, 2020)
pEC50, pIC50: −log10 of the molar value.

How the values were obtained:
RnDYRK1A = test: DYRK1A kinase assay; type: biochemical, Rn (rat); conditions: SI = IC50 kinase X/IC50 Haspin
Procedure: (§1) Values are IC50 expressed in µM and calculated from dose–response curves (each point on the curves was performed in triplicate). Selectivity indexes (SI; in brackets) are calculated as follows: SI = IC50 kinase X/IC50 Haspin. ND: not determined. *IC50 values obtained using the ADP-Glo methodology (see Experimental section, Supplementary Material). […]
The reaction was carried out as described in general procedure A using 4 (0.150 g, 0.58 mmol, 1 equiv.), 2-aminopyrimidine-5-boronic acid (0.122 g, 0.88 mmol, 1.5 equiv.) and Cs2CO3 (0.575 g, 1.75 mmol, 3 equiv.). The […]
The reaction was carried out as described in general procedure A using 4 (0.100 g, 0.39 mmol, 1 equiv.), 1-naphthaleneboronic acid (0.083g, 0.47 mmol, 1.2 equiv.) and Cs2CO3 (0.381 g, 1.17 mmol, 3 equiv.). The crude […]
Recombinant protein kinases were expressed and purified from E. coli (HsHaspin kinase domain aa470-798, HsCdk5/p25, RnDYRK1A kinase domain aa1-499, HsPIM1, MmCLK1) or baculovirus/Sf9 cells (HsCdk2/Cyclin A, HsCdk9/Cyclin T). […] The wet filter-bound radioactivity was determined in the presence of 20 µl scintillation fluid (GE healthcare) with a TopCount® Scintillation and Luminescence Counter (PerkinElmer). IC50 values were calculated from dose-response curves […]

HsCdk2/Cyclin A = biological target: T1, HsCdk2/Cyclin A (Homo sapiens, UniProt P24941); test: CDK2 kinase assay; type: biochemical
T1 construct: made in house; host or cells: baculovirus/Sf9 cells
Procedure: as §1
(§2) A, HsCdk9/Cyclin T). Native SscCK1δ /ε and SscGSK3α/β were purified from pig brain whereas HsPlk1, HsCdk1 and HsAurora B were purchased from ProQinase and SignalChem respectively. Kinase assays were performed in […]
(§3) mCi/ml; PerkinElmer) in a final volume of 30 µl as previously reported 51. After 30 min incubation at 30°C, the reaction mix was spotted onto GE healthcare P81 phosphocellulose paper using a FilterMate Harvester (PerkinElmer), and the filter was extensively washed with a 1% phosphoric acid solution. The wet filter-bound radioactivity was determined in the presence of 20 µl scintillation fluid (GE healthcare) with a TopCount® Scintillation and Luminescence Counter (PerkinElmer). IC50 values were calculated from dose-response curves […]
(§4) Kinase activities using the ADP-Glo methodology (ADP-Glo Kinase Assay; Promega) were assayed according to the assay described in Nguyen et al. 52 and Ibrahim et al. 53. […]

U-2 OS cells = test: Scratch wound cell migration assay (IncuCyte); type: cell-based, human; conditions: 0.6 µM, 0.5% FBS, normalised against DMSO control (100%)
U-2 OS = test: Cell viability, monolayer (2D), MTS assay; type: cell-based; conditions: Homo sapiens, U2OS, 48 h
HsHaspin = biological target: T2, HsHaspin (Homo sapiens, UniProt Q8TF76); test: Recombinant Haspin kinase assay ([γ-33P]ATP, 15 µM ATP; some values ADP-Glo); type: biochemical; conditions: recombinant HsHaspin, in vitro
T2 construct: aa470-798; made in house; host or cells: E. coli
T2 sequence (Q8TF76 470-798): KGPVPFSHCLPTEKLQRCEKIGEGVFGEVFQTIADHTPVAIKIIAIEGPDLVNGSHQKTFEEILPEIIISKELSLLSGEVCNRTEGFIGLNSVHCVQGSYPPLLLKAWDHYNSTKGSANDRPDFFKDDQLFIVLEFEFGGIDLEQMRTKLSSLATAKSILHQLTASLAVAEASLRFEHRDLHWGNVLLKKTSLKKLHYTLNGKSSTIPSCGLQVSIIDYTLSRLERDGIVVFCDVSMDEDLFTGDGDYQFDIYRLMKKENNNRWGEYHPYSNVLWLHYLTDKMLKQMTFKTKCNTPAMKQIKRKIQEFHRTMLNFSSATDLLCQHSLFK
Procedure: as §1, §2, §3, §4

SMILES: c1cc2[nH]ncc2cc1-c1cnc2ccc(OC[C@@H]3CNCCO3)nn12 [Compound 21]
- selectivity for DYRK1A vs Haspin (RnDYRK1A): 50 fold
- selectivity for CDK2 vs Haspin (HsCdk2/Cyclin A; SI = IC50 kinase X/IC50 Haspin): 716 fold
- pIC50 (HsCdk2/Cyclin A; read-out: IC50 CDK2): 5.37
- normalised wound closure after 24 h (U-2 OS cells): around 100%
- pEC50 (U-2 OS): 5.28
- pIC50 (HsHaspin): 8.22
